Where two headings read alike, the source gives them in different places.
What was measured:
[1] = target: GSK3α (GST-full length GSK3α) (Homo sapiens (Human), UniProt P49840); test: GSK3α TR-FRET kinase assay; type: biochemical
Summary of the method: (§1)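 Compound preincubated 30 min, then 1 nM GST-full-length GSK3α or GSK3b run 100 min at ambient temperature with 200 nM biotinylated, S645-prephosphorylated glycogen synthase 631-650 peptide in Tris pH 7.5, MgCl2, DTT, BSA, 1% DMSO. ATP 4 μM (α) or 2 μM (β), or 1 mM. EDTA-quenched; Tb-anti-pSer641/streptavidin-d2 TR-FRET 665/615 ratio gave IC50.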

[2] = target: GSK3b (GST-full length GSK3b) (Homo sapiens (Human), UniProt P49841); test: GSK3b TR-FRET kinase assay; type: biochemical
Sequence of GSK3b (GST-full length GSK3b) (P49841 whole entry): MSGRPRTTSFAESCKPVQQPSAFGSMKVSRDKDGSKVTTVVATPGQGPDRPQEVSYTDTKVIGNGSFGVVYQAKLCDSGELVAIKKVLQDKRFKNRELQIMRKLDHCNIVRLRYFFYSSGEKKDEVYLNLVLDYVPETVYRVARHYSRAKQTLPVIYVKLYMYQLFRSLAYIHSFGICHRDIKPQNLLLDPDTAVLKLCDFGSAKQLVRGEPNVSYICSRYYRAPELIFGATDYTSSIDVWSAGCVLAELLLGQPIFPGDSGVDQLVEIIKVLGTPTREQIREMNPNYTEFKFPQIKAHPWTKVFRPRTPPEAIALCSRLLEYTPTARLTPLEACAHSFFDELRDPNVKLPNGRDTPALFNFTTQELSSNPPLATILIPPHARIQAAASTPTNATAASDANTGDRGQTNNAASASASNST
Summary of the method: as §1

[3] = 1 nM GSK3α, 4 μM ATP, 30 minute preincubation, read-out: GSK3-A TR-FRET BIOCHEMICAL (TR-FRET), IC50
[4] = 1 nM GSK3b, 2 μM ATP, 30 minute preincubation, read-out: GSK3-B TR-FRET BIOCHEMICAL (TR-FRET), IC50
[5] = 1 nM GSK3α, 4 μM ATP, 30 minute preincubation, geometric mean, read-out: GSK3-A TR-FRET BIOCHEMICAL (TR-FRET), GMean, IC50
[6] = 1 nM GSK3b, 2 μM ATP, 30 minute preincubation, geometric mean, read-out: GSK3-B TR-FRET BIOCHEMICAL (TR-FRET), GMean, IC50
[7] = read-out: GSK3-A (TR-FRET 1 mM ATP), GMean, IC50, 1 mM ATP, geometric mean
[8] = read-out: GSK3-B (TR-FRET 1 mM ATP), GMean, IC50, 1 mM ATP, geometric mean
[9] = 1 nM GSK3α, 4 μM ATP, 30 minute preincubation, Table 16, read-out: GSK3-A TR-FRET BIOCHEMICAL (TR-FRET), IC50
[10] = 1 nM GSK3b, 2 μM ATP, 30 minute preincubation, Table 16, read-out: GSK3-B TR-FRET BIOCHEMICAL (TR-FRET), IC50
[11] = 1 nM GSK3α, 4 μM ATP, 30 minute preincubation, Table 16, read-out: GSK3-A TR-FRET BIOCHEMICAL (TR-FRET)
[12] = GSK3-A (TR-FRET 1 mM ATP), GMean, IC50, 1 mM ATP, geometric mean
[13] = 1 nM GSK3b, 2 μM ATP, 30 minute preincubation, Table 16, read-out: GSK3-B TR-FRET BIOCHEMICAL (TR-FRET)
[14] = GSK3-B (TR-FRET 1 mM ATP), GMean, IC50, 1 mM ATP, geometric mean

Sequence of GSK3α (GST-full length GSK3α) (P49840 whole entry): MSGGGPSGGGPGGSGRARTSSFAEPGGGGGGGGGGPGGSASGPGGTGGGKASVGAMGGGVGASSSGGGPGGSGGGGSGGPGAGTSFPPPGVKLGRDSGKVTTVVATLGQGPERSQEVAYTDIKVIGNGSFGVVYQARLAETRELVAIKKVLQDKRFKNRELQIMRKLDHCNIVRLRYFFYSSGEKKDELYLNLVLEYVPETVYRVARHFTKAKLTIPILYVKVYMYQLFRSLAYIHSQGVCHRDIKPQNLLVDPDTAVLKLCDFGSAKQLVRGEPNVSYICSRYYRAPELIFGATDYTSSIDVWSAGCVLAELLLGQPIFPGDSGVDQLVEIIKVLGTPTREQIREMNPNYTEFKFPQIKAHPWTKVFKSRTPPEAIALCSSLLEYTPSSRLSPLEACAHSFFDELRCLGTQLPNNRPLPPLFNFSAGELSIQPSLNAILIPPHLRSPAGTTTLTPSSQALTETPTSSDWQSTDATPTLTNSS

IC50 [1, 5] | IC50 [2, 6] | SMILES | also measured
0.1 to 1 µM | > 5 µM | CCC1(c2cccc(N(C)c3cccnc3)c2)C2=C(CC(C)(C)CC2=O)Nc2n[nH]cc21 (centres unmarked) [Compound 874299] | 
≤ 0.1 µM | ≤ 0.1 µM | CCC1(c2cccc(N3CCOCC3)c2)C2=C(CC(C)(C)CC2=O)Nc2n[nH]c(C)c21 (centres unmarked) [Compound 874312] | 
1 to 5 µM | > 5 µM | CCC1(c2cccc(-c3ccncc3)c2)C2=C(CC(C)CC2=O)Nc2n[nH]cc21 (centres unmarked) [Compound 874315] | 
0.1 to 1 µM | 1 to 5 µM | CCC1(c2cccc(-c3ccncc3)c2)C2=C(CC(C)CC2=O)Nc2n[nH]cc21 (centres unmarked) [Compound 874316] | 
1 to 5 µM | 1 to 5 µM | CC1(C)CC(=O)C2=C(C1)Nc1n[nH]c(CCC(F)(F)F)c1C21CCc2c(F)cccc21 (centres unmarked) [Compound 874323] | 
≤ 0.1 µM | ≤ 0.1 µM | CCC1(c2ccccc2)C2=C(CC(C)(C)CC2=O)Nc2n[nH]c(C(F)F)c21 (centres unmarked) [Compound 874510] | IC50 [1, 7]: 0.1 to 1 µM; IC50 [2, 8]: 0.1 to 1 µM
≤ 0.1 µM | ≤ 0.1 µM | CCC1(c2cccc(-n3ccnc3)c2)C2=C(CC(C)(C)CC2=O)Nc2n[nH]cc21 (centres unmarked) [Compound 874531] | 
0.1 to 1 µM | > 5 µM | CCC1(c2cccc(-n3ccnc3)c2)C2=C(CC(C)(C)CC2=O)Nc2n[nH]cc21 (centres unmarked) [Compound 874533] | 

The remaining lines, values behind:

SMILES | IC50 [1, 5] | IC50 [2, 6] | also measured
CCC1(c2cccc(C(F)(F)F)c2)C2=C(CC(C)(C)N(C)C2=O)Nc2n[nH]cc21 (centres unmarked) [Compound 826791] |  |  | IC50 [1, 3]: 0.1 to 1 µM; IC50 [2, 4]: 1 to 5 µM
CCC1(c2cccc(Br)c2)C2=C(CC(C)CC2=O)Nc2n[nH]c(C(F)(F)F)c21 (centres unmarked) [Compound 828849] | 0.1 to 1 µM | 0.1 to 1 µM | 
CCC1(c2ccccc2)C2=C(CCC(C)(C)C2=O)Nc2n[nH]cc21 (centres unmarked) [Compound 835310] | 0.1 to 1 µM | 1 to 5 µM | 
CCC1(c2cccc(Br)c2)C2=C(CC(C)(C)C(F)C2=O)Nc2n[nH]cc21 (centres unmarked) [Compound 835312] | > 5 µM | > 5 µM | 
CC[C@]1(c2cccc(Br)c2)C2=C(CC(C)(C)[C@@H](F)C2=O)Nc2n[nH]cc21 [Compound 835313] | > 5 µM | > 5 µM | 
CCC1(c2cccc(Br)c2)C2=C(CC(C)(C)C(F)C2=O)Nc2n[nH]cc21 (centres unmarked) [Compound 835314] | ≤ 0.1 µM | 0.1 to 1 µM | 
CCC1(c2cccc(Br)c2)C2=C(CC(C)(C)C(F)C2=O)Nc2n[nH]cc21 (centres unmarked) [Compound 835315] | ≤ 0.1 µM | ≤ 0.1 µM | IC50 [1, 7]: 0.1 to 1 µM; IC50 [2, 8]: 1 to 5 µM
CCC1(c2cccc(-c3ccnc(C)c3)c2)C2=C(CC(C)(C)CC2=O)Nc2n[nH]cc21 (centres unmarked) [Compound 840857] | ≤ 0.1 µM | 0.1 to 1 µM | 
CCC1(COC)C2=C(CC(C)(C)CC2=O)Nc2n[nH]cc21 (centres unmarked) [Compound 841866] |  |  | IC50 [1, 9]: > 5 µM; IC50 [2, 10]: > 5 µM
CN1CCC2(C1)C1=C(CC(C)(C)CC1=O)Nc1n[nH]cc12 (centres unmarked) [Compound 841867] |  |  | IC50 [1, 9]: > 5 µM; IC50 [2, 10]: > 5 µM
CCC1(c2cccc(N(C)c3ccncc3)c2)C2=C(CC(C)(C)CC2=O)Nc2n[nH]cc21 (centres unmarked) [Compound 853910] | 0.1 to 1 µM | 1 to 5 µM | 
CCC1(c2cccc(-n3ccnc3)c2)C2=C(CC(C)(C)CC2=O)Nc2n[nH]cc21 (centres unmarked) [Compound 854926] | ≤ 0.1 µM | 0.1 to 1 µM | 
CC1(C)CC(=O)C2=C(C1)Nc1n[nH]c(CCC(F)(F)F)c1C2(C)c1ccccc1 (centres unmarked) [Compound 856948] | > 5 µM | > 5 µM | 
CC[C@@]1(c2cccc(C(F)(F)F)c2)C2=C(CCN(C(C)C)C2=O)Nc2n[nH]cc21 [Compound 857336] |  |  | IC50 [1, 3]: ≤ 0.1 µM; IC50 [2, 4]: 0.1 to 1 µM
CC[C@]1(c2cccc(C(F)(F)F)c2)C2=C(CCN(C(C)C)C2=O)Nc2n[nH]cc21 [Compound 857362] |  |  | IC50 [1, 3]: > 5 µM; IC50 [2, 4]: > 5 µM
CCC1(c2ccccc2)C2=C(Nc3n[nH]cc31)C1CCC1C2=O (centres unmarked) [Compound 861716] |  |  | IC50 [1, 9]: 1 to 5 µM; IC50 [2, 10]: > 5 µM
CCC1(c2ccccc2)C2=C(CSC(C)(C)C2=O)Nc2n[nH]cc21 (centres unmarked) [Compound 862028] |  |  | IC50 [1, 3]: 0.1 to 1 µM; IC50 [2, 4]: 1 to 5 µM
CCC1(c2cccc(-c3ccnc(C)c3)c2)C2=C(CC(C)(C)CC2=O)Nc2n[nH]cc21 (centres unmarked) [Compound 865170] | 1 to 5 µM | > 5 µM | 
CCC1(c2cccc(N3CCCC3=O)c2)C2=C(CC(C)(C)CC2=O)Nc2n[nH]cc21 (centres unmarked) [Compound 865171] | ≤ 0.1 µM | 0.1 to 1 µM | 
CC1(C)CC(=O)C2=C(C1)Nc1n[nH]cc1C21CCC(C(F)(F)F)CC1 (centres unmarked) [Compound 865193] |  |  | IC50 [1, 11]: ≤ 0.1 µM; IC50 [1, 12]: 0.1 to 1 µM; IC50 [2, 13]: ≤ 0.1 µM; IC50 [2, 14]: 1 to 5 µM
CCC1(c2cccc(CN(C)C(C)=O)c2)C2=C(CC(C)(C)CC2=O)Nc2n[nH]cc21 (centres unmarked) [Compound 865194] | 0.1 to 1 µM | 1 to 5 µM | 
CCC1(c2cccc(CN(C)C(=O)C(C)C)c2)C2=C(CC(C)(C)CC2=O)Nc2n[nH]cc21 (centres unmarked) [Compound 865195] | 0.1 to 1 µM | > 5 µM | 

SMILES | IC50 [1, 5] | IC50 [2, 6] | also measured
CCC1(c2cccc(CN(C)C(=O)COC)c2)C2=C(CC(C)(C)CC2=O)Nc2n[nH]cc21 (centres unmarked) [Compound 865196] | 0.1 to 1 µM | > 5 µM | 
CC[C@]1(c2ccccc2)C2=C(Nc3n[nH]cc31)[C@@H](C)C[C@H](C)C2=O [Compound 865198] | 0.1 to 1 µM | 1 to 5 µM | 
CC[C@@]1(c2ccccc2)C2=C(Nc3n[nH]cc31)[C@H](C)C[C@@H](C)C2=O [Compound 865199] | 1 to 5 µM | > 5 µM | 
CC[C@]1(c2ccccc2)C2=C(Nc3n[nH]cc31)[C@H](C)C[C@@H](C)C2=O [Compound 865201] | ≤ 0.1 µM | 0.1 to 1 µM | 
CC[C@@]1(c2ccccc2)C2=C(Nc3n[nH]cc31)[C@@H](C)C[C@H](C)C2=O [Compound 865202] | > 5 µM | > 5 µM | 
CCC1(c2cccc(C(F)(F)F)c2)C2=C(CCNC2=O)Nc2n[nH]cc21 (centres unmarked) [Compound 870263] |  |  | IC50 [1, 3]: 0.1 to 1 µM; IC50 [2, 4]: > 5 µM
CCC1(c2cccc(N(C)c3ccncc3)c2)C2=C(CC(C)(C)CC2=O)Nc2n[nH]cc21 (centres unmarked) [Compound 874261] | 0.1 to 1 µM | > 5 µM | 
CCC1(c2cccc(N(C)c3ccccn3)c2)C2=C(CC(C)(C)CC2=O)Nc2n[nH]cc21 (centres unmarked) [Compound 874294] | ≤ 0.1 µM | 0.1 to 1 µM | 
CCC1(c2cccc(N(C)c3cccnc3)c2)C2=C(CC(C)(C)CC2=O)Nc2n[nH]cc21 (centres unmarked) [Compound 874298] | ≤ 0.1 µM | ≤ 0.1 µM | 
CCC1(COCc2ccccc2)C2=C(CC(C)(C)CC2=O)Nc2n[nH]cc21 (centres unmarked) [Compound 874313] |  |  | IC50 [1, 9]: 1 to 5 µM; IC50 [2, 10]: 1 to 5 µM
C[C@@H]1CCC[C@]12C1=C(CC(C)(C)CC1=O)Nc1n[nH]cc12 [Compound 874319] |  |  | IC50 [1, 9]: 1 to 5 µM; IC50 [2, 10]: 1 to 5 µM
C[C@H]1CCC[C@@]12C1=C(CC(C)(C)CC1=O)Nc1n[nH]cc12 [Compound 874320] |  |  | IC50 [1, 9]: 1 to 5 µM; IC50 [2, 10]: 1 to 5 µM
CC1(C)CC(=O)C2=C(C1)Nc1n[nH]cc1C21CC2(CCCC2)C1 [Compound 874477] |  |  | IC50 [1, 3]: ≤ 0.1 µM; IC50 [1, 12]: 0.1 to 1 µM; IC50 [2, 4]: ≤ 0.1 µM; IC50 [2, 14]: 1 to 5 µM
CC1(C)CC(=O)C2=C(C1)Nc1n[nH]cc1C21CCC1 [Compound 874509] |  |  | IC50 [1, 11]: 0.1 to 1 µM; IC50 [2, 13]: 0.1 to 1 µM
CC1(C)CC(=O)C2=C(C1)Nc1n[nH]cc1C21CC(C(F)(F)F)C1 (centres unmarked) [Compound 874527] |  |  | IC50 [1, 11]: ≤ 0.1 µM; IC50 [2, 13]: 0.1 to 1 µM
CC1(C)CC(=O)C2=C(C1)Nc1n[nH]cc1C21CCN(CC(F)(F)F)CC1 [Compound 874528] |  |  | IC50 [1, 11]: ≤ 0.1 µM; IC50 [2, 13]: 0.1 to 1 µM
CC1(C)CC(=O)C2=C(C1)Nc1n[nH]cc1C21CCN(c2ccncn2)CC1 [Compound 874529] |  |  | IC50 [1, 11]: 0.1 to 1 µM; IC50 [2, 13]: 1 to 5 µM
CC1(C)CC(=O)C2=C(C1)Nc1n[nH]cc1C21CCN(S(=O)(=O)c2ccccc2)CC1 [Compound 874530] |  |  | IC50 [1, 11]: ≤ 0.1 µM; IC50 [1, 12]: 0.1 to 1 µM; IC50 [2, 13]: ≤ 0.1 µM; IC50 [2, 14]: 1 to 5 µM
C[C@@H]1CCC[C@]2(C1)C1=C(CC(C)(C)CC1=O)Nc1n[nH]cc12 [Compound 874532] |  |  | IC50 [1, 11]: ≤ 0.1 µM; IC50 [2, 13]: ≤ 0.1 µM
CC1(C)CC(=O)C2=C(C1)Nc1n[nH]cc1C21CC2(CCOCC2)C1 [Compound 874534] |  |  | IC50 [1, 3]: ≤ 0.1 µM; IC50 [1, 12]: 0.1 to 1 µM; IC50 [2, 4]: ≤ 0.1 µM; IC50 [2, 14]: 0.1 to 1 µM
CC1(C)CC(=O)C2=C(C1)Nc1n[nH]cc1[C@]21CCCOCC1 [Compound 874535] |  |  | IC50 [1, 11]: ≤ 0.1 µM; IC50 [2, 13]: ≤ 0.1 µM
CC1(C)CC(=O)C2=C(C1)Nc1n[nH]cc1[C@@]21CCCOCC1 [Compound 874536] |  |  | IC50 [1, 9]: 0.1 to 1 µM; IC50 [2, 10]: 1 to 5 µM
